# Data taken from patent US9456589B2, “Elasmobranch-repelling compounds and methods of use” (priority 2005, dated 2016).
# Where “and” joins values, the source holds several entries; their conditions need not be identical. Equal entries are not always repeated.
# What was measured:
# [1] = system: captive Cobia and Yellowfin Tuna; test: Feeding behavior of captive fish in the presence of aldehydes; format: in vivo
# Excerpt: Similarly, teleost reef fish, such as Triggerfish and Snappers, have been observed feeding and swimming in a cloud of shark-repelling aldehydes. This behavior is presumed to result from the lack of aldehyde-receptors in the fishes' gustatory system.
# blue sharks = test: Tonic immobility, syringe delivery to the mouth of blue sharks; format: in vivo, Prionace glauca; conditions: two blue sharks, two assays each, 20 mL or less
# Excerpt: The sharks had been captured on rod and reel and were held in tonic immobility along a boat.
# [2] = system: sharks (lemon, nurse, tiger pooled); test: Tonic immobility, Hd Syringe Assay, summary over species; format: in vivo; conditions: species pooled
# In short: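 Sharks held in tonic immobility by inversion, with seawater sham releases (some at 30 mL/sec) as controls. 3-methylbutanal released slowly by 3 mL syringe (22 gauge) within 3 inches of mouth and nares. Waking/flight response recorded, with time to response where measurable.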
# [3] = system: sharks (lemon, nurse, blacknose, blacktip pooled); test: Tonic immobility, Syringe Assay, summary over species; format: in vivo
# In short: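 Test chemical delivered as a bolus of 60 mL or more from one to five feet from the shark, distance set by water current strength. Time from delivery until response was recorded; it depends on bolus size, distance and current as the diffusing cloud reaches the shark.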
# tiger sharks = test: Tonic immobility, Hd Syringe Assay; format: in vivo, G. cuvieri; conditions: 1 ml
# Experimental: One bioassay used to observe and measure flight response is the tonic immobility test. Tonic immobility is a state of paralysis that typically occurs when a shark is subject to inversion of its body along the longitudinal axis. This state is called “tonic,” and the shark can remain in this state for up to 15 minutes thereby allowing researchers to observe effects of chemical repellents. The “tonic” state of the shark is first established by releasing seawater in proximity to the “tonic” shark with the same delivery instrument and at the same distance as a “test” repellent compound will be released. Some controls are released with a high flow rate (30 mL/sec) in order to establish that sharks are not awakened by a jet of fluid over their noses. Once behavioral controls are established, a compound or composition that may have a repelling effect is delivered to the shark. If the compound or composition engenders a flight response, the shark will awaken from the tonic state and rapidly attempt to flee the delivered repellent. Using this tonic immobility bioassay researches can quantify the strength of a repellent effect.
# Lemon, nurse, blacktip and tiger sharks were placed in tonic immobility by inverting the shark's body along its longitudinal axis. […]
smiles,measurement,setting,value
CC(C)CC=O [3-methylbutanal],feeding behavior of fish in the presence of the aldehyde,[1],slightly increased
same,response to direct delivery to the mouth,blue sharks,behavioral response (classic mouth-agape response)
same,"Hd-Syringe N (no response), trials of trials",[2],one and 1/27
same,"Hd-Syringe R (behavior response within tonic immobility), trials of trials",[2],6/27
same,"Hd-Syringe R, percent of trials",[2],22%
same,"Hd-Syringe Y (termination of tonic immobility), trials of trials",[2],20/27
same,"Hd-Syringe Y, percent of trials",[2],74%
same,"Syringe Y (termination of tonic immobility), trials of trials",[3],7/7
same,Response (time from delivery to response),tiger sharks,1 s
same,TTI (termination of tonic immobility),tiger sharks,Y
